Experimental data as given in ChEMBL document CHEMBL3507680, “University of Dundee, Gates Library screen for HepG2 cell viability”.

Test: Human HepG2 cell viability assay in 384 well format
Assay type: toxicity, cell-based
Design: dose 125 nL, time 70.5 hour; concentration not given beside the values
Details: HepG2 cells, read-out: Inhibition

SMILES | cytotoxicity at 70.5 h
Cc1c(NC(=O)NC2CCCC2)cccc1C(=O)N1CCSCC1 | -3.56%
Cc1nc2scc(C)n2c1CNc1ccc(C(=O)O)cc1 | 19.2%
CCc1nc(CC(=O)N2CCC(C(=O)N3CCCC3)CC2)cs1 | -9.83%
CN(Cc1nnnn1C1CC1)c1cccc2ccccc12 | 0.192%
Cc1nc(CNC(=O)Nc2ccc(N(C)C)nc2)sc1C | -2.95%
O=C1C(Sc2nc(=O)ccn2C2CC2)CCN1c1ccccc1 (centres undefined) | 0.555%
O=C(CC(F)(F)F)NCC(O)c1ccc2ccccc2c1 (centres undefined) | -3.75%
CCOCC(=O)N1CC(=O)Nc2cc(Br)ccc21 | -6.53%
CCOCCC(=O)N1CC(=O)Nc2cc(Br)ccc21 | 22%
O=C(Nc1ccccc1C(=O)N1CCCC1)NC1CCOCC1 | -7.16%
CCC(CNS(=O)(=O)c1c[nH]cn1)Oc1ccccc1F (centres undefined) | -2.67%
CCc1nc(CC(=O)N2CCC(C(=O)N(CC)CC)CC2)cs1 | -11.2%
O=C(c1cccnc1)N(CCO)Cc1cc(Br)ccc1F | -3.63%
Cc1cc(OC(F)F)c(C(=O)N2CC[C@H](O)C2)s1 | -6.12%
Cc1cc(C(=O)CN2CCN(c3ncccn3)CC2)c(C)n1C(C)C | 12.3%
O=C(c1ccc(=O)[nH]n1)N(CCO)Cc1cc(Br)ccc1F | -5.4%
O=C(c1ccccn1)N(CCO)Cc1cc(Br)ccc1F | 17.2%
CC(=O)N1CCCN(C(=O)c2ccc(Sc3ccccn3)cc2)CC1 | -8.48%
COc1ccccc1C1(CNCc2ccc(C#N)cc2)CCOCC1 | -6.31%
Cc1noc(C(C)NC(=O)[C@@H](C)NC(=O)OC(C)(C)C)n1 (some centres undefined) | -3.59%
Cc1noc(CNC(=O)[C@@H](C)NC(=O)OC(C)(C)C)n1 | -2.55%

SMILES | cytotoxicity at 70.5 h
CCC(CC)(CNC(=O)NC1CCCC1(C)C)S(C)(=O)=O (centres undefined) | -7.23%
Cn1cnnc1C1CCCN1C(=O)Nc1cccc(OC(F)F)c1 (centres undefined) | -1.48%
Cc1cc(OC(F)F)c(C(=O)N2CCC(N(C)C)CC2)s1 | 31.3%
COc1ccccc1C1(CNCc2ccc([S+](C)[O-])cc2)CC1 (centres undefined) | -6.54%
COc1ccc(OC)c(-n2nnnc2SCC2CCCN(C)C2)c1 (centres undefined) | -3.08%
O=C(c1cccc(CNC/C=C/c2ccccc2)c1)N1CCCC1 | 4.26%
CCc1sc(-c2nnc(CNCCn3cccn3)o2)cc1C | -0.343%
CC(NCCCC#N)c1ccc(-c2cccnc2)cc1 (centres undefined) | -2.12%
Cc1ccc(S(=O)(=O)NC(=O)COc2ccc(CC#N)cc2)s1 | 2.71%
CC1CCN(c2ccc(CNC(=O)NCCn3ccnc3)cn2)CC1 | -0.689%
COCCCNC(=O)NCc1ccc(N2CCOC(C)C2)nc1 (centres undefined) | 17.1%
Cc1cc(CS(=O)(=O)C(C)c2ccc(F)cc2)on1 (centres undefined) | -5.55%
CCc1sc(C(=O)Nc2cnn(CC(=O)NC3CC3)c2)cc1C | -8.41%
CC1(C)Oc2ccc(NC(=O)c3ccc(=O)[nH]n3)cc2O1 | -12.5%
CN(C)c1ncc(CNC(=O)Nc2ccccc2C(F)(F)F)n1C | 18.7%
Cc1ccc2c(c1)OC(C)CN2C(=O)Cc1ccc(C)nc1 (centres undefined) | -0.93%
CC(CCN(C)C)NC(=O)c1cccc(C(F)(F)F)c1F (centres undefined) | -1.47%
Cc1csc(N(C)C(=O)C(c2c(F)cccc2Cl)N(C)C)n1 (centres undefined) | -0.598%
CC(CCN1CCOCC1)NC(=O)c1cccc(C(F)(F)F)c1F (centres undefined) | -5.66%
Cc1c(C(C)NC(=O)Nc2ccc(F)c(F)c2)cnn1C (centres undefined) | -3.96%
COc1ccc2cc(CNc3c(C)nn(C(C)C)c3C)ccc2c1 | -0.974%

SMILES | cytotoxicity at 70.5 h
O=C(CN1CCCC(c2ccn[nH]2)C1)Nc1nc2c(s1)CCCC2 (centres undefined) | 1.65%
CCN(Cc1noc(CC(C)C)n1)Cc1ccccc1C | -1.58%
Cc1nnc(NC(=O)CN2CCCC(c3ccn[nH]3)C2)s1 (centres undefined) | 18.6%
CC(C)NC(=O)CC(C)NCc1ccc(F)cc1Cl (centres undefined) | -3.7%
CC(C)NC(=O)CC(C)NCc1cc(Cl)ccc1F (centres undefined) | -3.06%
Cc1ccc2cc(C(=O)N3CCC(O)(C(F)(F)F)CC3)ccc2n1 | 0.437%
Cc1cc(C2CCCN(CC(=O)Nc3nc4c(s3)CCC4)C2)n[nH]1 (centres undefined) | 18.9%
CC1CCCN1C1CCN(C(=O)c2cccc(-c3ccoc3)c2)CC1 (centres undefined) | 10.8%
CCS(=O)(=O)c1ccc(NCc2csc(C(C)C)n2)cc1 | 4.81%
Cc1ccc(OCCNC(=O)C2CCOCC2)c(C)c1 | 35.7%
Cc1noc(C)c1CN(C)c1ncnc2ccccc12 | -6.84%
c1ccc2[nH]c(C3CCN(Cc4nc(C5CC5)no4)CC3)cc2c1 | -1.32%
COc1cccc(OCc2nnc3n2N=C(C(C)(C)C)CS3)c1 | -8.92%
CN(CC(N)=O)CC(=O)N(C1=CCCCC1)C1CC1 | -10.7%
c1ccc2[nH]c(C3CCN(Cc4noc(C5CC5)n4)CC3)cc2c1 | -3.83%
CCOc1ccc(C#N)cc1NC(=O)N1CCCC(NC(=O)CC)C1 (centres undefined) | -7.12%
CCNC(=O)C1CCCN(C(=O)Nc2cc(C#N)ccc2OCC)C1 (centres undefined) | 0.887%
Cc1oc(C(=O)O)cc1S(=O)(=O)Nc1cccc(-c2nccs2)c1 | 6.48%
Cc1ccc(NS(=O)(=O)c2cc(C(=O)O)oc2C)c(Br)c1 | -6.35%
O=C(CN1CCSCC1c1ccccc1)N1CCCC1 (centres undefined) | 20%
Cc1cccc(NS(=O)(=O)c2cc(C(=O)O)oc2C)c1 | -0.669%

SMILES | cytotoxicity at 70.5 h
CN(C)C(=O)c1cc(NC(=O)N2CCCC(C(F)(F)F)C2)ccn1 (centres undefined) | -1.06%
Cc1oc(C(=O)O)cc1S(=O)(=O)Nc1ccc(Cl)c(Cl)c1 | -3.75%
CC(C)(C)c1nnc(CN2CCC(c3cc4ccccc4[nH]3)CC2)o1 | 17.4%
CN(CC(C)(C)O)C(=O)Nc1ccc(F)c(-n2cccc2)c1 | -9.2%
CNC(=O)C(C)CN(C)C(=O)Nc1ccc(Cl)cc1-n1cccc1 (centres undefined) | 4.05%
CN(CC(N)=O)C(=O)c1cn(-c2ccc(Br)cc2)cn1 | 23.1%
CC(CO)N(C)C(=O)c1cn(-c2ccc(Br)cc2)cn1 (centres undefined) | -7.34%
CS(=O)(=O)CC1(CNc2ccc(C#N)c(C(F)(F)F)c2)CC1 | -3.35%
Cc1nc(CC(C)C)sc1C(=O)N1CCC(C2(C)OCCO2)CC1 | 2.11%
CC(C)c1nc(CNc2ccc(CNS(C)(=O)=O)cc2)cs1 | -8.66%
Cc1nc(CC(C)C)sc1C(=O)N1CCC1 | -2.02%
CC(=O)N1CCN(CCNc2ncc(Br)cc2C)CC1 | -1.98%
CCOCC(=O)Nc1ncn(Cc2cccc(Br)c2)n1 | 17.2%
Cc1nn(C)c(Oc2cccc(F)c2)c1NC(=O)C1CCCO1 (centres undefined) | -6.09%
CCOCc1ccccc1NC(=O)NC1CCN(C(=O)OCC)CC1 | -5.57%
CCOCc1ccccc1NC(=O)NC1CCN(CC(F)(F)F)C1 (centres undefined) | -6.42%
CCOCc1ccccc1NC(=O)NC1CCN(c2ccccc2)C1 (centres undefined) | -4.36%
CCOCc1ccccc1NC(=O)NC1CCN(C2CCCC2)C1 (centres undefined) | -6.21%
CS(=O)(=O)Cc1nc(CN2CCc3ccccc3CC2)cs1 | 5.16%
O=C(O)c1ccc(S(=O)(=O)Nc2ccccc2CC(F)(F)F)c(F)c1 | -15.6%
CCCNCc1cn(Cc2ccccc2)nc1-c1cccnc1 | -8.99%
